Measurements published in patent US5286895A, “Cholesterol lowering compounds” (Merck & Co., Inc., priority 1992, dated 1994).

Legend:
cholesterol synthesis = assay: Measurement of inhibition of cholesterol synthesis in mice ([3H]mevalonolactone incorporation in liver); assay type: in vivo; conditions: female Swiss-Webster mice, subcutaneous
Description: Female Swiss-Webster mice, approximately 25 grams, were dosed subcutaneously with the test compound or just with saline for controls. The tri-sodium salt of Compound A was dissolved in 0.9% NaCl and administered in a volume of less than 0.1 ml. Thirty minutes after receiving a dose of the test compound or saline for the controls, the mice were subcutaneously administered a dose of 0.5 uCi of R,S-[5-^3 H]mevalonolactone (35 Ci/mmol). The tracer mevalonolactone was dissolved in 0.9% NaCl and administered in a volume of 0.05 ml. Thirty minutes after receiving the dose of mevalonolactone, the animals were euthanized, and the livers were removed and saponified in a solution of 4 ml of 40% KOH and 2 ml of 95% ethanol overnight at 65° C. The saponified livers were extracted with two 5 ml volumes of petroleum ether. Incorporation of ^3 H into this petroleum ether fraction was used to measure cholesterol synthesis. Inhibition of cholesterol synthesis was determined by comparing the incorporation of ^3 H in the petroleum ether fraction in control animals to the incorporation in the petroleum ether fraction in the compound test animals.

squalene synthetase = target: T1, squalene synthetase (Rattus norvegicus, UniProt Q02769); assay: Squalene synthetase assay (rat liver microsomes, [4-14C]farnesyl-pyrophosphate); assay type: biochemical; conditions: 30° C., 20 minutes, read-out: IC50, squalene synthetase inhibition
T1 construct: The resulting microsomal pellet was resuspended in a volume of the above homogenizing buffer; from tissue; host or cells: rat liver microsomes (male Charles River CD rats fed 0.1% lovastatin)
T1 sequence (Q02769 1-416): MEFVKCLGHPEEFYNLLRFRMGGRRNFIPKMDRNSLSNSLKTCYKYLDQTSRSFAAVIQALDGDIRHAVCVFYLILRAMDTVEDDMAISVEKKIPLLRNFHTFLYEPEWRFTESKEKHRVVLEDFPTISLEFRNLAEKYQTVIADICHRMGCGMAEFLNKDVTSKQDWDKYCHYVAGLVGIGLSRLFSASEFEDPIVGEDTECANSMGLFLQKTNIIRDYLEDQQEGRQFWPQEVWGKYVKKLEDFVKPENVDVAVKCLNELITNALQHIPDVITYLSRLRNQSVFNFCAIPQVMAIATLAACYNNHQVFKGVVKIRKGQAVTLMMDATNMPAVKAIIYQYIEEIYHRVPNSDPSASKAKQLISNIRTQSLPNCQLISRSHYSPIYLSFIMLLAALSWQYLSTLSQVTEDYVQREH
Description: Male, Charles River CD rats (120 to 150 g) were fed a diet containing 0.1% lovastatin for 4 days. The livers from these rats were homogenized in 5 volumes (ml/g) of ice cold 50 mM HEPES (4-(2-hydroxyethyl)-1-piperazine-ethanesulfonic acid), 5 mM EDTA(ethylenediaminetetraacetic acid) pH 7.5 with a Potter-Elvehjem type tissue grinder. The homogenate was centrifuged twice at 20,000× g for 15 minutes at 4° C., discarding the pellet each time. The supernatant was then centrifuged at 100,000× g for 1 hour at 4° C. The resulting microsomal pellet was resuspended in a volume of the above homogenizing buffer equal to one-fifth the volume of the original homogenate. This microsomal preparation has a protein concentration of about 7 mg/ml. The microsomal suspensions were stored in aliquots at -70° C. Squalene synthetase activity in these aliquots is stable for at least several months.
Reaction were performed in 16×125 mm screw cap test tubes. A batch assay mix was prepared from the following solution:
This assay mix was degassed under a vacuum and flushed with N2. […] Ten ml of scintillation fluid was added to the heptane solution and radioactivity was determined by liquid scintillation counting.
Percent inhibition is calculated by the formula: [formula]
IC50 values were determined by plotting the log of the concentration of the test compound versus the percentage inhibition.

**Q.** For `C/C(=C\C(C)Cc1ccccc1)CCCCCC(C(=O)O)C(O)(CC(=O)O)C(=O)O` (stereo not drawn) [Compound A], which ED50 (cholesterol synthesis; Mus musculus, sc, tri-sodium salt in 0.9% NaCl, dosed 30 min before [3H]mevalonolactone) is on record?
**A.** Its ED50 is ~15 mg/kg.

**Q.** And the “inhibition of cholesterol synthesis in mice (in words)” value (cholesterol synthesis)?
**A.** Its value is “potent inhibitor of cholesterol synthesis in mice”.

**Q.** What about the IC50 (squalene synthetase) of the same molecule?
**A.** The IC50 was ~300 nM.
